2 compounds from patent publication US20120214830A1, “BIOLOGICAL MARKERS PREDICTIVE OF ANTI-CANCER RESPONSE TO INSULIN-LIKE GROWTH FACTOR-1 RECEPTOR KINASE INHIBITORS IN HEPATOCELLULAR CARCINOMA” (OSI Pharmaceuticals, LLC, priority 2011, published 2012) can be followed below.

For assay [1], the system named is ErbB3 in JHH5, HepG2, and HUH1 HCC cells. The assay is described as follows: ErbB3 protein expression after TGFβ treatment. It is filed as cell-based, human. As to conditions: data not shown. The protocol: Preparation of Protein Lysates and Western Blotting: Cells were rinsed with PBS and lysed in RIPA buffer (Sigma #R0278) containing protease and phosphatase inhibitor cocktails (Sigma #P2850, P8340, P5726). Cell lysates were cleared by centrifugation and subjected to western blotting. Antibodies included: E-cadherin (Santa Cruz #sc21791), ErbB3 (Santa Cruz #sc285), vimentin (BD Pharmingen #550513), Zebl (Santa Cruz #sc25388).
(§1) TGFβ treatment: Cells were grown in medium supplemented with 10 ng/ml TGFβ (EMD Biosciences #616450) for 10 days with replating every 3-4 days. The cells were then lysed for either RT-PCR or CELLTITER-GLO® proliferation assays (Promega, Madison, Wis.).

Assay [2] relates to AFP expression in HUH-1, JHH-5 and HepG2 cells. The assay is described as follows: AFP expression by RT-PCR after TGFβ treatment. It is filed as cell-based, human. The note with it: 10 ng/ml TGFβ for 10 days, HUH-1, JHH-5, HepG2. On the procedure: FIG. 11: TGFβ decreases AFP expression and cell sensitivity to OSI-906. HUH-1, JHH-5 and HepG2 cells were treated with TGFβ and cells were either treated with OSI-906 for proliferation assays (A) or lysed to measure AFP expression by RT-PCR (B).
Taqman Assays: Total RNA was isolated with RNeasy kit (Qiagen) and treated with RNase-free DNase. Reverese transcription was performed with SuperScript III First-Strand Synthesis system (Invitrogen, Carlsbad, Calif.). The Gene Expression Assays were obtained from Applied Biosystems, Foster City, Calif. Quantitation of relative gene expression was conducted as described by the manufacturer using 50 ng of template. In order to determine relative expression across cell lines, amplification of AFP gene was compared to amplification of the gene for GAPDH as an internal standard.
as §1

Another assay has as its system Hep 3B. The assay can be described thus: Cell Titer-Glo proliferation assay, 72 h. The note with it: Homo sapiens; Hep3B cells, erlotinib alone, determined beforehand; read-out: concentration to inhibit about 50% proliferation. Type of assay: cell-based. On the procedure:
(§2) Two sensitive epithelial cell lines Hep3B (A), JHH-7 (B), one insensitive epithelial cell line JHH-1(C) or one insensitive mesenchymal-like cell line HLF (D) were treated serial dilution of OSI-906 in the presence of Erlotinib for 72 hours, and sensitivity to treatment was measured by proliferation assays.
(§3) Cell lines: Twenty-one HCC cell lines were purchased from either ATCC (HepG2, Hep3B, PLC/PRF/5, SK-Hepl, SNU-182, SNU-387, SNU-398, SNU-423, SNU-449, SNU-475) or Health Science Research Resources Bank (Japan) (HUH-1, HUH-6, HUH-7, HLE, HLF, JHH-1, JHH-2, JHH-4, JHH-5, JHH-6, JHH-7). All the cell lines were maintained in media as described by the vendors. For growth inhibition assays, cells were plated and allowed to proliferate for 24 hours. After 24 hours, cells had reached approximately 15% confluency, at which time serial dilutions of OSI-906 were added and the cells grown for a further 72 hours. Cell viability was assayed using the Cell Titer-Glo reagent (Promega Corp., Madison, Wis.).
(§4) Proliferation Assay. Proliferation was assayed using Cell Titer Glo assays (Promega) and was determined 72 hours following dosing with OSI-906. The basis of the assay is a luminescent quantitation of ATP present in a cell culture plate well. In essence, the greater the number of viable cells in the well, the greater the level of ATP present. The assay utilizes a substrate that binds ATP to produce a luminescent signal, which can be read on a luminometer. Unless otherwise noted, the manufacturer's instructions were followed exactly. Briefly, on Day 1, cells were plated in 120 μl of 10% serum-containing growth media at a density of 4000 cells/well in a white polystyrene 96 well assay plate. On day 2, cells were treated with 15 μl of 10× concentration of the IGF-1R inhibitor (e.g. OSI-906) or DMSO alone for a final well volume of 150 μl. After 72 h incubation with the inhibitor, the cells were assayed. Results were calculated as a fraction of the DMSO controlled cells.

A further assay deals with JHH-1. The assay is described as follows: Cell Titer-Glo proliferation assay, 72 h. It is filed as cell-based. As to conditions: Homo sapiens, JHH1; JHH-1 cells, erlotinib alone, determined beforehand; read-out: concentration to inhibit about 50% proliferation. The protocol:
as §2, §3, §4
On the technique in general: Cellular ATP, detected with luciferase, serves as a proxy for viable cell number.

For the compound TGFβ, the “expression of the epithelial biomarker protein ErbB3 after TGFβ treatment” value in assay [1] is recorded as “decreased”. Moreover, the “AFP expression after TGFβ treatment” value in assay [2] is listed as “decreased”.

`C#Cc1cccc(Nc2ncnc3cc(OCCOC)c(OCCOC)cc23)c1` [Erlotinib, [6,7-bis(2-methoxyethoxy)-4-quinazolin-4-yl]-(3-ethynylphenyl) amine, reference compound]: the results for the IC50 in the assay on Hep 3B and in the assay with JHH-1 were 3300 nM and 120 nM, respectively.
